Source: patent publication US10328051B2, “Proline or proline derivatives for the treatment of dementia” (priority 2014, dated 2019)
Entries after “also recorded” stand apart in the source; their conditions may differ.

Columns and labels:
[1] = Tissue distribution, bioaccumulation and pharmacokinetics following multiple dose administration of 3H-CHP in mice (Study IPSS E015); format: in vivo
Description: Example 2. A Study in Mice on the Tissue Distribution, Bioaccumulation and Pharmacokinetics in Tissues, Connective and BrainTissues Following Multiple Dose Administration of ^3H-CHP Study No. IPSS E015 (FIG. 2)
According to this invention the study has been designed and performed as follows:
From each mouse sacrificed, the following organs & tissues samples were taken:
Liver, kidney, pancreas, limbic system, spinal fluid, brain stem, cerebrum, cerebellum, cartilage, ligaments and tendons (dense or fibrous connective tissue), loose connective tissue, and reticular connective tissue (supports lymph nodes, bone marrow, and spleen)

[2] = test system: adenocarcinoma and liver metastases, pancreatic cancer and bladder cancer; assay: Phase II clinical studies IPSS-A04, IPSS-B013, IPSS-D002: anti-tumour activity; format: in vivo, human
Description: Title: Phase II—CHP as antitumour agent in patients with resected colorectal cancer and liver metastasis; 60 patients—Study IPSS-A04 (Example 12.1).
Title: Phase II—CHP in patients with locally advanced or metastatic pancreatic cancer—14 patients Study IPSS B013 (Example 12.2).
Title: Evaluation of safety and efficacy of CHP in patients with urogenital Cancer—25 patients—Study IPSS-D002 (Example 12.3).

[3] = Pre-dose endogenous plasma concentrations of CHP and THP in healthy volunteers (Study 0202-71), HPLC; format: in vivo, human; conditions: healthy subjects
Method: Example 8—Study Title: Determination of Pre-Dose Endogenous Concentrations of CHP in Healthy Volunteers (Study 0202 71) (FIG. 11)
According to the examples in this invention, the following ICH-GCP Clinical Phase I study has been performed in healthy subjects for the assessment of the pharmacokinetic profiles of CHP and THP and the determination of the pre-dose endogenous CHP blood plasma concentrations, which were measured for all healthy volunteers directly before CHP administration using a validated, sensitive and selective HPLC bioanalytical method.
Example 9—Study Title: Determination of Pre-Dose Endogenous Concentrations of THP in Healthy Volunteers (Study 0202 71)—(FIG. 11)
According to the examples in this invention, the following ICH-GCP Clinical Phase I study has been performed in healthy volunteers for the assessment of the pharmacokinetic profiles of THP and to determine the pre-dose endogenous THP plasma concentrations, which were measured for all healthy volunteers directly before CHP administration using a validated, sensitive and selective HPLC bioanalytical method. This was performed before both CHP administrations (i.e. for 2.0 g and 3.0 g). • The mean endogenous THP concentration in healthy subjects, calculated across all dose groups, was 0.97±1.15 μg CHP/ml of plasma.

[4] = Tissue distribution and pharmacokinetics of single dose of radiolabelled 3H-CHP in mice (Study IPSS C053); format: in vivo; conditions: single dose 3H-CHP
Description: Example 1: Tissue Distribution and Pharmacokinetic Study with CHP Study “Clinical Study in Mice on the Tissue Distribution and Pharmacokinetics of Single Dose of the Radiolabelled ^3H-CHP-Study No.: IPSS C053”—(FIG. 1). This Study has been Designed and Performed According to this Invention
1. Determination of ^3H-CHP distribution in 25 tissues, remaining carcass and whole blood over time.
2. Determination of pharmacokinetic parameters of CHP.
3. Comparison of intravenous (IV), and oral routes of administration.
^3H-CHP Labelling • CHP was labelled on the 4-prime position using tritium. • The scintillation counting technique detects the tritium atom. • Therefore the counting technique detects CHP and some metabolites which incorporate the tritium. […] They were selected using inclusion and exclusion criteria, and were therefore highly standardised.
Dosing Regimen • 48 animals were each administered 50 μCi ^3H-CHP at the start of the experiment. This was termed time zero (00:00 hrs). • 27 mice were dosed via the intravenous (IV) route. • 21 mice were dosed via the oral route. • Six (6) animals were not administered with CHP. They form two control groups of 3 mice each.
Data Collection • 3 mice were sacrificed following the SOP for anesthesia and according to the following time intervals
Sample Collection • From each sacrificed mouse, the following samples were taken: • Whole BloodEyes & Harderian GlandsKidneys & Adrenal GlandsAortaLiverLungSpleenUrinary BladderBone & Bone MarrowCaecumSmall IntestineLarge IntestineLymph Nodes (Mesenteric) Muscle, PancreasBrain & Pituitary GlandBrown FatSubcutaneous FatHeartThymousBoth TestesProstateSkinStomachThyroidSalivary GlandsRemaining CarcassUrine (collected if possible: in practise this was rare)
The remaining carcass sample consisted of the rest after removal of whole blood and the other tissues. Any material cleaned from other tissues listed above was also included. The collected remainings were homogenised before analysis.

[5] = test system: patients with advanced cancer disease; assay: Efficacy, safety and Quality of Life of 25 clinical cases with advanced cancer treated with oral and intravenous CHP; format: in vivo, human
Description: Example 11—Study Title: Evaluation of the Efficacy, Safety and Quality of Life (QoL) of 25 Clinical Cases in Patients with Advanced Cancer Disease Treated with Oral and Intravenous Formulations of Cis-4-Hydroxy-L-Proline (CHP)
25 patients (15 female and 10 male) have been treated with oral and/or intravenous CHP: • Mean age was over 60 years with maximum of 82 and minimum of 36 years. • 15 Patients considered as “elderly patients”—60-82 years (60%) • Patients 50-60 years (20%) • No further demographic data were documented. • Complete clinical case documents have been prepared for each patient.

[6] = repeated oral dose of 3H-CHP for 7 consecutive days

Question: With O=C(O)[C@@H]1C[C@H](O)CN1 [CHP, cis-4-hydroxy-L-proline] as the molecule, how does the “Penetration of the BBB” value ([1]; repeated dose of oral aqueous solution of 3H-CHP) read?
Answer: Excellent penetration of the BBB

Question: What about the “AUC as % of total administered CHP in cerebrum, cerebelium, brain stem, limbic system and spinal fluid” value [1, 6] of the same molecule?
Answer: 14.9%

Question: And the “AUC as % of total administered CHP in loose connective tissues, cartilage, reticular connective tissue, dense/fibrous connective tissue, bone and bone marrow” value [1, 6]?
Answer: 35%

Question: What about the “Half-Life time in cerebrum, cerebelium, brain stem and limbic system” value [1, 6] of the same molecule?
Answer: 32.30 to 42.70 h

Question: And the “Anti-tumour activity in patients” value [2]?
Answer: anti-tumour activities

Question: What about the “Average Cmax, molar equivalent in blood” value ([3]; Study 0202-71) of the same molecule?
Answer: 462.2±212.1 μM CHP/ml blood

Question: And the “Average Cmax” value ([3]; Study 0202-71, after CHP administration)?
Answer: 30.29±13.91 μg CHP/ml plasma

Question: And the “Maximal concentration in the brain following oral administration in comparison to the intravenous application” value [4]?
Answer: approximately 48%

Question: What about the “Crossing of the blood-brain barrier” value ([4]; concentration observed in brain & pituitary gland) of the same molecule?
Answer: can cross the blood-brain barrier

Question: And the “Tolerability of long-term treatment” value ([5]; 1-13 month, 2-22 gram/day CHP as monotherapy, 25 patients)?
Answer: well tolerated

Question: What about the “Toxic side effects, adverse events” value ([5]; 25 patients with advanced cancer, CHP monotherapy) of the same molecule?
Answer: No adverse events or side effects occurred were clinically relevant; also recorded: no toxic side effects or serious adverse events

Question: And the Healing ([5]; advanced cancer patients treated with CHP)?
Answer: In one case healing was achieved

Question: What about the “Course of disease in most of the patients” value ([5]; advanced cancer, no progression, no ascites, no obstruction) of the same molecule?
Answer: quite long time of stable disease
